The record followed here is patent US20240383856A1 (Zedira GmbH, priority 2021, published 2024).

Series [1] has as its target T1, recombinant human transglutaminase 2 (Homo sapiens, UniProt P21980).
T1 construct: purchased Zedira T022
T1 sequence (P21980 1-687): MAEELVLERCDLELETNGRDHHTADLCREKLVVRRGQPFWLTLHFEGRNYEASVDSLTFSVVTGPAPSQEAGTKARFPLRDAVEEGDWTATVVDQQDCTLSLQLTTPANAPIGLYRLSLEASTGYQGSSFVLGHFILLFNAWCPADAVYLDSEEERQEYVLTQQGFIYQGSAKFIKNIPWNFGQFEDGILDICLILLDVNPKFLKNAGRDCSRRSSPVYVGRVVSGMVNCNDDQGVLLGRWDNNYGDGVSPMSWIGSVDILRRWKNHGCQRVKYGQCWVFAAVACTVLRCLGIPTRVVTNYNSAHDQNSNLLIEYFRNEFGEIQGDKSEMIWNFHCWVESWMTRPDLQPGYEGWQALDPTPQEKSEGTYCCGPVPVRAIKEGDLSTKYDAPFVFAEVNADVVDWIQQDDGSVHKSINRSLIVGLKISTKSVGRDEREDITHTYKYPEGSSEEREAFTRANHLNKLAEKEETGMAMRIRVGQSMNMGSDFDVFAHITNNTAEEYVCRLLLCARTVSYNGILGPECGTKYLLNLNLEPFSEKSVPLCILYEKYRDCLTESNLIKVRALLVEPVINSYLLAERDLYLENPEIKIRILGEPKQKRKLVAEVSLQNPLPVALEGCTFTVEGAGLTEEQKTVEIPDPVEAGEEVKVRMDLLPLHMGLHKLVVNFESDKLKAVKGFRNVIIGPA
The series is described as follows: Transglutaminase assay (DCC-assay): incorporation of dansylcadaverine into dimethylcasein. Particulars: recombinant human TG2 10 nM; dansylcadaverine incorporation into dimethylcasein; read-out: IC50 TG2. The series is classed as biochemical. An outline of the steps:
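Recombinant human TG2 (10 nM final) incorporates dansylcadaverine into N,N-dimethylcasein. Reaction mix: 50 mM Tris-HCl, 10 mM CaCl2, 10 mM glutathione, 2.5% glycerol, 16.7 µM dansylcadaverine, 4 µM dimethylcasein, 200 mM NaCl, pH 8.0. Fluorescence (ex 330/em 500 nm) was followed 30 min at 37 °C; the 20–30 min slope, expressed as % of 2% DMSO control, gave IC50.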

Series [2] in a line: logD by shake flask method (octanol / PBS pH 7.4, HPLC). It counts as physicochemical. Particulars: octanol / PBS pH 7.4, shake flask. The method, boiled down:
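Shake-flask partition of compound between octanol and phosphate-buffered saline at pH 7.4, with each phase quantified by HPLC to give LogD.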

Series [3] can be described thus: Caco-2 permeability assay (CacoReady kit). It counts as in vitro ADME. The conditions noted are these: human, Caco-2, Caco-2 barrier, CacoReady kit; above 1×10^−6 cm/s classified as permeable. The method, boiled down:
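Read-out is the permeability coefficient Papp, obtained from transport across a Caco-2 barrier prepared from a ready-to-use kit following the manufacturer's instructions.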

For `CNC(=O)C(=O)CC[C@H](NC(=O)c1c(C)nc2sccn12)C(=O)Nc1cccn(CC(=O)NC2C3CC4CC(C3)CC2C4)c1=O` (stereo partly drawn) [II-66, (S)-N1-(1-(2-(2-adamantylamino)-2-oxoethyl)-2-oxo-1,2-dihydropyridin-3-yl)-N6-methyl-2-(6-methylimidazo[2,1-b]thiazole-5-carboxamido)-5-oxohexanediamide], the IC50 in series [1] lay within 400 to 2500 nM. Also, the log distribution coefficient (logD) in series [2] is 1 to 3. Moreover, in series [3], the Papp is under 1 ×10⁻⁶ cm/s.

In the case of `CNC(=O)C(=O)CC[C@H](NC(=O)c1oc2ccccc2c1C)C(=O)Nc1cccn(CC(=O)N(C)C2C3CC4CC(C3)CC2C4)c1=O` (stereo partly drawn) [II-67, (S)-N1-(1-(2-(2-adamantyl(methyl)amino)-2-oxoethyl)-2-oxo-1,2-dihydropyridin-3-yl)-N6-methyl-2-(3-methylbenzofuran-2-carboxamido)-5-oxohexanediamide], the IC50 in series [1] lay in the range of 400 to 2500 nM. In series [2], the log distribution coefficient (logD) lay in the range of 3 to 5. This compound also displayed a Papp in series [3] of 1 to 10 ×10⁻⁶ cm/s.

As for `CNC(=O)C(=O)CC[C@H](NC(=O)c1oc2ccccc2c1C)C(=O)Nc1cccn(CC(=O)NC2C3CC4CC2CC(O)(C4)C3)c1=O` (stereo partly drawn) [II-68, (S)-N1-(1-(2-(5-hydroxyadamantane-2-amino)-2-oxoethyl)-2-oxo-1,2-dihydropyridin-3-yl)-N6-methyl-2-(3-methylbenzofuran-2-carboxamido)-5-oxohexanediamide], the 50% inhibitory concentration (IC50) in series [1] was 40 to 400 nM. This compound also returned a log distribution coefficient (logD) in series [2] of under 1. Further, the apparent permeability coefficient (Papp) in series [3] was under 1 ×10⁻⁶ cm/s.

Turning to `CNC(=O)C(=O)CC[C@H](NC(=O)c1oc2ccccc2c1C)C(=O)Nc1cccn(CC(=O)NC2C3CC4CC2CC(F)(C4)C3)c1=O` (stereo partly drawn) [II-69, (S)-N1-(1-(2-(5-fluoroadamantane-2-amino)-2-oxoethyl)-2-oxo-1,2-dihydropyridin-3-yl)-N6-methyl-2-(3-methylbenzofuran-2-carboxamido)-5-oxohexanediamide], in series [1], the half-maximal inhibitory concentration (IC50) was under 40 nM. The same compound gave a logD in series [2] of 1 to 3. This compound also showed a Papp in series [3] of 1 to 10 ×10⁻⁶ cm/s.

For the compound `CNC(=O)C(=O)CC[C@H](NC(=O)c1oc2ccccc2c1C)C(=O)Nc1cccn(CC(=O)NC2C3CC4CC2CC(Cl)(C4)C3)c1=O` (stereo partly drawn) [II-70, (S)-N1-(1-(2-(5-chloroadamantane-2-amino)-2-oxoethyl)-2-oxo-1,2-dihydropyridin-3-yl)-N6-methyl-2-(3-methylbenzofuran-2-carboxamido)-5-oxohexanediamide], the 50% inhibitory concentration (IC50) in series [1] was under 40 nM. In series [2], this compound displayed a logD of 1 to 3. The same compound displayed a Papp in series [3] of 1 to 10 ×10⁻⁶ cm/s.

Regarding `CNC(=O)C(=O)CC[C@H](NC(=O)c1oc2ccccc2c1C)C(=O)Nc1cccn(CC(=O)NC2C3CC4CC2CC(Br)(C4)C3)c1=O` (stereo partly drawn) [II-71, (S)-N1-(1-(2-(5-bromoadamantane-2-amino)-2-oxoethyl)-2-oxo-1,2-dihydropyridin-3-yl)-N6-methyl-2-(3-methylbenzofuran-2-carboxamido)-5-oxohexanediamide], the IC50 in series [1] was under 40 nM. In addition, the logD in series [2] is 1 to 3. The compound also displayed a Papp in series [3] of 1 to 10 ×10⁻⁶ cm/s.

With `CNC(=O)C(=O)CC[C@H](NC(=O)c1oc2ccccc2c1C)C(=O)Nc1cccn(CC(=O)NC2C3CC4CC2CC(C)(C4)C3)c1=O` (stereo partly drawn) [II-72, (S)-N1-(1-(2-(5-methyladamantane-2-amino)-2-oxoethyl)-2-oxo-1,2-dihydropyridin-3-yl)-N6-methyl-2-(3-methylbenzofuran-2-carboxamido)-5-oxohexanediamide], the IC50 in series [1] was under 40 nM. Further, the pH-dependent lipophilicity (logD) in series [2] lay in the range of 3 to 5. In series [3], the Papp is under 1 ×10⁻⁶ cm/s.

With `CNC(=O)C(=O)CC[C@H](NC(=O)c1oc2ccccc2c1C)C(=O)Nc1cccn(CC(=O)NC2(C#N)C3CC4CC(C3)CC2C4)c1=O` (stereo partly drawn) [II-73, (S)-N1-(1-(2-(2-carbonitrileadamantane-2-amino)-2-oxoethyl)-2-oxo-1,2-dihydropyridin-3-yl)-N6-methyl-2-(3-methylbenzofuran-2-carboxamido)-5-oxohexanediamide], the half-maximal inhibitory concentration (IC50) in series [1] lay within 40 to 400 nM. Further, the logD in series [2] was 1 to 3. The compound further registered a Papp in series [3] of under 1 ×10⁻⁶ cm/s.

As to `CNC(=O)C(=O)CC[C@H](NC(=O)c1oc2ccccc2c1C)C(=O)Nc1cccn(CC(=O)NC2(C(=O)OC)C3CC4CC(C3)CC2C4)c1=O` (stereo partly drawn) [II-74, (S)-N1-(1-(2-(2-methyladamantane-2-carboxylate-2-amino)-2-oxoethyl)-2-oxo-1,2-dihydropyridin-3-yl)-N6-methyl-2-(3-methylbenzofuran-2-carboxamido)-5-oxohexanediamide], the IC50 in series [1] lay in the range of 400 to 2500 nM. The compound further yielded a logD in series [2] of 1 to 3. Also, the Papp in series [3] was under 1 ×10⁻⁶ cm/s.

On to `CNC(=O)C(=O)CC[C@H](NC(=O)c1oc2ccccc2c1C)C(=O)Nc1cccn(CC(=O)NCC23CC4CC(CC(C4)C2)C3)c1=O` [II-87, (S)-N1-(1-(2-(1-adamantylmethylamino)-2-oxoethyl)-2-oxo-1,2-dihydropyridin-3-yl)-N6-methyl-2-(3-methylbenzofuran-2-carboxamido)-5-oxohexanediamide], for which, in series [1], the IC50 is 40 to 400 nM. In series [2], this compound displayed a logD of 3 to 5. For the same compound, the apparent permeability coefficient (Papp) in series [3] is 1 to 10 ×10⁻⁶ cm/s.

As for `CNC(=O)C(=O)CC[C@H](NC(=O)c1cc2ccccc2o1)C(=O)Nc1cccn(CC(=O)NC(C)C23CC4CC(CC(C4)C2)C3)c1=O` (stereo partly drawn) [II-88], in series [1], the IC50 is 40 to 400 nM. In addition, the log distribution coefficient (logD) in series [2] lay within 3 to 5. Besides, in series [3], the Papp is under 1 ×10⁻⁶ cm/s.

Consider `CNC(=O)C(=O)CC[C@H](NC(=O)c1oc2ccccc2c1C)C(=O)Nc1cccn(CC(=O)N[C@H]2C[C@H]3CC[C@@H]2C3)c1=O` [II-90, (S)-N1-(1-(2-((1R,2S,4S)-bicyclo[2.2.1]heptan-2-ylamino)-2-oxoethyl)-2-oxo-1,2-dihydropyridin-3-yl)-N6-methyl-2-(3-methylbenzofuran-2-carboxamido)-5-oxohexanediamide], for which the IC50 in series [1] was 40 to 400 nM. For the same compound, the pH-dependent lipophilicity (logD) in series [2] was in the range of 1 to 3. This compound also gave an apparent permeability (Papp) in series [3] of under 1 ×10⁻⁶ cm/s.

Consider `CNC(=O)C(=O)CC[C@H](NC(=O)c1oc2ccccc2c1C)C(=O)Nc1cccn(CC(=O)N[C@H]2C[C@H]3CC[C@@]2(C)C3(C)C)c1=O` [II-92, (S)-N1-methyl-5-(3-methylbenzofuran-2-carboxamido)-2-oxo-N6-(2-oxo-1-(2-oxo-2-((1S,2S,4R)-1,7,7-trimethylbicyclo[2.2.1]heptan-2-ylamino)ethyl)-1,2-dihydropyridin-3-yl)hexanediamide], for which, in series [1], the IC50 is 40 to 400 nM. Also, in series [2], the logD was 3 to 5. Further, the apparent permeability (Papp) in series [3] fell in the range of 1 to 10 ×10⁻⁶ cm/s.

As for `CNC(=O)C(=O)CC[C@H](NC(=O)c1oc2ccccc2c1C)C(=O)Nc1cccn(CC(=O)N[C@@H]2C[C@H]3CC[C@@H]2C3)c1=O` [II-94, (S)-N1-(1-(2-((1R,2R,4S)-bicyclo[2.2.1]heptan-2-ylamino)-2-oxoethyl)-2-oxo-1,2-dihydropyridin-3-yl)-N6-methyl-2-(3-methylbenzofuran-2-carboxamido)-5-oxohexanediamide], in series [1], the half-maximal inhibitory concentration (IC50) was under 40 nM. This compound also displayed a pH-dependent lipophilicity (logD) in series [2] of 1 to 3. The Papp in series [3] was 1 to 10 ×10⁻⁶ cm/s.

For the compound `CNC(=O)C(=O)CC[C@H](NC(=O)c1oc2ccccc2c1C)C(=O)Nc1cccn(CC(=O)NC23CCC(CC2)C3)c1=O` [II-95, (S)-N1-(1-(2-(bicyclo[2.2.1]heptan-1-ylamino)-2-oxoethyl)-2-oxo-1,2-dihydropyridin-3-yl)-N6-methyl-2-(3-methylbenzofuran-2-carboxamido)-5-oxohexanediamide], the IC50 in series [1] is 40 to 400 nM. In addition, the logD in series [2] lay in the range of 1 to 3. The Papp in series [3] fell in the range of 1 to 10 ×10⁻⁶ cm/s.

Turning to `CNC(=O)C(=O)CC[C@H](NC(=O)c1oc2ccccc2c1C)C(=O)Nc1cccn(CC(=O)NC2C3CCC2CC3)c1=O` (stereo partly drawn) [II-96, (S)-N1-(1-(2-(bicyclo[2.2.1]heptan-7-ylamino)-2-oxoethyl)-2-oxo-1,2-dihydropyridin-3-yl)-N6-methyl-2-(3-methylbenzofuran-2-carboxamido)-5-oxohexanediamide], in series [1], the IC50 was in the range of 40 to 400 nM. In series [2], the log distribution coefficient (logD) fell in the range of 1 to 3. In addition, in series [3], the apparent permeability coefficient (Papp) lay in the range of 1 to 10 ×10⁻⁶ cm/s.

`CNC(=O)C(=O)CC[C@H](NC(=O)c1oc2ccccc2c1C)C(=O)Nc1cccn(CC(=O)NC2CC3C=CC2C3)c1=O` (stereo partly drawn) [II-97, (S)-N1-(1-(2-(bicyclo[2.2.1]hept-5-en-2-ylamino)-2-oxoethyl)-2-oxo-1,2-dihydropyridin-3-yl)-N6-methyl-2-(3-methylbenzofuran-2-carboxamido)-5-oxohexanediamide]: the IC50 in series [1] is 40 to 400 nM. Besides, in series [2], the logD fell in the range of 1 to 3. Moreover, in series [3], the Papp was 1 to 10 ×10⁻⁶ cm/s.
